These results are taken from PubChem BioAssay AID652053 (Broad Institute, 2013).

A value given as a limit tells only on which side of the number the result lay.

In this assay the test system is Huh7 psiCHECK-miR122 Renilla luciferase reporter, 48 h. The assay can be described thus: miR-122 inhibitors in Huh7 reporter cells, dose response, cell-based, Huh7 psiCHECK-miR122, Renilla luciferase, cherry-pick (AID 652053).
As to `CCN(CC)S(=O)(=O)c1ccc(N2CCOCC2)c(NS(=O)(=O)c2ccc(C(C)C)cc2)c1`, the AC40 is 5.51 µM.

For the compound `Cc1cc(C)cc(NS(=O)(=O)c2ccc3oc(=O)ccc3c2)c1`, the AC40 was 3.43 µM.

For `CCOc1ccc(S(=O)(=O)Nc2cccc(Cl)c2)cc1`, the AC40 was 3.84 µM.

For `C[C@H](CO)N1C[C@H](C)[C@@H](CN(C)Cc2ccc3c(c2)OCO3)Oc2c(NC(=O)C3CCOCC3)cccc2C1=O`, the AC40 was 9.34 µM.

As for `O=C(CN1c2ccccc2Sc2ccccc21)NNC(=O)Nc1cccc(Cl)c1`, the AC40 is 17.1 µM.

For the compound `CN1CC(c2ccccc2Cl)C2(COc3ccccc3C2=O)C12C(=O)Nc1ccccc12` (centres undefined), the AC40 was 2.2 µM.

`O=C(Nc1ccccc1O)c1ccc(NS(=O)(=O)c2cccc3cccnc23)cc1`: the AC40 is 14.8 µM.

As for `O=C(Nc1ccccc1)c1ccc(NC2CCCCC2)c(S(=O)(=O)N2CCOCC2)c1`, the AC40 is 13.9 µM.

As to `CCOC(=O)c1c(C)[nH]c(C)c1S(=O)(=O)NCCc1ccco1`, the AC40 was 2.96 µM.

As for `Cc1cc(C(C)(C)C)cc(S(=O)(=O)Nc2ccc(C(=O)O)cc2)c1C`, the AC40 was 9.72 µM.

Turning to `O=C(c1ccc(F)cc1)N1C[C@H]2[C@@H](c3ccccc31)[C@@H](CO)N2Cc1ccc2c(c1)OCO2`, the AC40 was 17.3 µM.

In the case of `O=C(N/N=C/c1ccc(Cl)s1)C(O)c1ccccc1` (centres undefined), the AC40 is 1.17 µM.

With `Cc1ccc(-c2nn3c(C)nnc3c3ccccc23)cc1S(=O)(=O)NCCN1CCOCC1`, the AC40 is 3.24 µM.

Consider `CCOc1cc(C)c(Cl)cc1S(=O)(=O)NC1CC(C)(C)NC(C)(C)C1`, for which the AC40 was 6.39 µM.

In the case of `COc1ccc(NS(=O)(=O)c2ccc(Cl)c(N)c2)cc1Br`, the AC40 is 3.88 µM.

Regarding `COc1ccccc1NS(=O)(=O)c1cc(NC(=S)NCC2CCCO2)ccc1C` (centres undefined), the AC40 was 3.52 µM.

Regarding `COc1cc(OC)c(NS(=O)(=O)c2ccc(Cl)c(C(=O)OC(C)C(=O)N3CCCC3)c2)cc1Cl` (centres undefined), the AC40 was 8.08 µM.

On to `C[C@H](CO)N1C[C@H](C)[C@@H](CN(C)Cc2ccc(Oc3ccccc3)cc2)Oc2c(NC(=O)c3ccncc3)cccc2C1=O`, for which the AC40 was 2.42 µM.

Take `COc1ccc(C)cc1S(=O)(=O)Nc1cc2c3c(c1)CCC(=O)N3CCC2`: the AC40 was 1.86 µM.

`CC(C)CNS(=O)(=O)c1ccc(CCC(=O)NCCC2=CCCCC2)cc1`: the AC40 is 23 µM.

`O=C(NC(=S)Nc1ccc(S(=O)(=O)NC2CCCCC2)cc1)c1cccs1`: the AC40 was 0.715 µM.

Take `COc1ccc(NS(=O)(=O)c2ccc(N3CCOCC3)c(NC(=O)c3ccc(F)cc3)c2)cc1`: the AC40 is 7.87 µM.

With `O=S(=O)(Nc1ccc2cn[nH]c2c1)c1cc(Br)ccc1Br`, the AC40 was 4.32 µM.

Consider `CCCCn1c(NC(=O)c2ccc(Br)o2)c(S(=O)(=O)c2ccccc2)c2nc3ccccc3nc21`, for which the AC40 is 25.7 µM.

For `C[C@@H]1CN([C@H](C)CO)C(=O)c2cccc(NS(=O)(=O)c3cccs3)c2O[C@H]1CN(C)Cc1ccc(C(F)(F)F)cc1`, the AC40 was 1.6 µM.

As for `COc1cc(S(=O)(=O)NCc2cccnc2)c(OC)cc1Br`, the AC40 was 4.72 µM.

Consider `Cc1cc(C)cc(NS(=O)(=O)c2ccc(NC(=S)NC(=O)c3cccs3)cc2)c1`, for which the AC40 is under 0.26 µM.

On to `C[C@H]1CN([C@@H](C)CO)C(=O)c2cccc(NC(=O)C3CCCCC3)c2O[C@@H]1CN(C)Cc1ccc(C(F)(F)F)cc1`, for which the AC40 was 0.547 µM.

For the compound `Cc1ccc(NS(=O)(=O)c2cc(C(=O)NCCSC3CCCCC3)ccc2C)cc1`, the AC40 is 4.68 µM.

For `CCOC(=O)/C(=N/Nc1ccc(Cl)cc1)S(=O)(=O)c1ccccc1`, the AC40 was 3.28 µM.

As for `Cc1ccccc1NS(=O)(=O)c1cc(C(=O)N2CCc3ccccc3C2)ccc1C`, the AC40 is 20.4 µM.

`COc1ccc(OC)c(C(c2nnnn2C2CCCC2)N2CCN(c3ccccc3F)CC2)c1` (centres undefined): the AC40 was 12.3 µM.

For the compound `O=C(CSc1nnc(-c2cc3ccccc3cc2O)n1Cc1ccco1)c1ccc(F)cc1`, the AC40 is 5.74 µM.

On to `C[C@H](CO)N1C[C@H](C)[C@H](CN(C)Cc2ccc(C(=O)Nc3ccccc3N)cc2)Oc2ccc(NS(=O)(=O)c3cn(C)cn3)cc2CC1=O`, for which the AC40 was 27 µM.

For `CCN(CC)S(=O)(=O)c1ccc(NS(=O)(=O)c2ccc(C)c(C)c2)cc1`, the AC40 was 11.3 µM.

Regarding `CCOc1ccccc1NC(=O)Cn1nnc(C(=O)NCc2cccs2)c1N`, the AC40 is 5.91 µM.

In the case of `COc1ccc(C(=O)Nc2ccc(S(=O)(=O)NCc3ccco3)cc2)cc1OC`, the AC40 is 4.75 µM.

Take `CCCNC(=O)C[C@H]1CC[C@H]2[C@H](COc3ccc(NC(=O)Cc4cccs4)cc3C(=O)N2C)O1`: the AC40 was 2.21 µM.

Turning to `O=S(=O)(Nc1ccccc1)c1ccc(Oc2ncc(C(F)(F)F)cc2Cl)cc1`, the AC40 is 21.6 µM.

Turning to `Cc1ccc(C)c(S(=O)(=O)Nc2ccc(-n3cnnn3)cc2)c1`, the AC40 was under 0.26 µM.

As for `Cc1cc(C)c(-n2nnnc2SCC(=O)c2cccs2)c(C)c1`, the AC40 was 14.9 µM.

Turning to `Cc1ccc(OC(C)C(=O)Nc2ccc(C)c(S(=O)(=O)Nc3ccc(C)cc3C)c2)cc1` (centres undefined), the AC40 is 12.5 µM.

In the case of `COc1ccc(S(=O)(=O)Nc2cc(C)ccc2OC)cc1C`, the AC40 is 3.63 µM.

Regarding `CC(NC(=O)CNC(=S)N(Cc1cccs1)C1CCCC1)c1ccccc1` (centres undefined), the AC40 is 1.47 µM.

Turning to `CN1C(=O)c2cc(NC(=O)Cc3ccccc3)ccc2OC[C@@H]2O[C@H](CC(=O)NCC3CC3)CC[C@@H]21`, the AC40 was 0.512 µM.

On to `COc1ccccc1-c1nnc2sc(-c3ccc(N(C)C)cc3)nn12`, for which the AC40 is 7.44 µM.

As to `C[C@H](CO)N1C[C@H](C)[C@@H](CN(C)Cc2ccc3c(c2)OCO3)Oc2c(NC(=O)NC3CCCCC3)cccc2C1=O`, the AC40 is 2.53 µM.

Take `CCCCOCCCNC(=S)Nc1ccc(S(=O)(=O)N2CCOCC2)cc1`: the AC40 was 11 µM.

In the case of `CCC(C(=O)Nc1ccc(N2CCOCC2)c(S(=O)(=O)Nc2ccccc2OC)c1)c1ccccc1` (centres undefined), the AC40 was 1.11 µM.

As to `CS(=O)(=O)N(CC(=O)Nc1ccc(Cl)c(Cl)c1)C1CCCCC1`, the AC40 was 13.5 µM.

For the compound `Cc1ccc(SCCNC(=O)c2ccc(C)c(S(=O)(=O)Nc3cccc(C)c3)c2)cc1`, the AC40 was 3.74 µM.

Consider `CCOc1ccc(NS(=O)(=O)c2cc(C)c(C)cc2C)cc1`, for which the AC40 is 2.04 µM.

In the case of `Cc1ccc(NC(=O)C(=O)c2c(-c3ccccc3)cc3ccccn23)cc1S(=O)(=O)N1CCOCC1`, the AC40 was 27.9 µM.

For `COc1cc(NS(=O)(=O)c2cc3c(cc2C)NC(=O)CO3)cc(OC)c1`, the AC40 is 4.02 µM.

Consider `Cc1cc(C(=O)Nc2cccc3c2O[C@H](CN(C)Cc2ccc(C(F)(F)F)cc2)[C@@H](C)CN([C@H](C)CO)C3=O)n(C)n1`, for which the AC40 was 0.943 µM.

Turning to `COc1ccc(OC)c(S(=O)(=O)N/N=C\c2ccc3c(c2)OCO3)c1`, the AC40 is 0.508 µM.

For the compound `CCN(CC)C(=O)CC(c1ccc(N(C)C)cc1)c1c(OC)cc(OC)c2c(-c3ccccc3)cc(=O)oc12` (centres undefined), the AC40 was 3 µM.

For `COc1cc(S(=O)(=O)N2CCCCCC2)c(OC)cc1Br`, the AC40 was 1.74 µM.

In the case of `Cc1ccc(-c2ccc3c(c2)O[C@H](CN(C)Cc2ccc(F)cc2)[C@@H](C)CN([C@H](C)CO)S3(=O)=O)cc1`, the AC40 was 5.46 µM.

In the case of `C[C@@H]1CN([C@@H](C)CO)S(=O)(=O)c2ccc(C#CCN(C)C)cc2O[C@@H]1CN(C)Cc1ccc2c(c1)OCO2`, the AC40 was 8.29 µM.

Turning to `Cc1ccc(CN2CCSc3ccc(C(=O)NCc4cccnc4)cc32)cc1`, the AC40 is 10.6 µM.

For `Cc1ccc(S(=O)(=O)Nc2ccc3nc(N)sc3c2)cc1`, the AC40 is 2 µM.

`CC(OC(=O)c1cccc(S(=O)(=O)Nc2cccc(C(F)(F)F)c2)c1)C(=O)Nc1ccc2c(c1)OCCO2` (centres undefined): the AC40 is 3.57 µM.

Turning to `C[C@H](CO)N1C[C@H](C)[C@H](CN(C)Cc2ccc(C(=O)Nc3ccccc3N)cc2)Oc2ccc(NC(=O)NC3CCCCC3)cc2CC1=O`, the AC40 is 16.2 µM.

Turning to `COC(=O)C1CC23C=CCN4CCC5(c6ccccc6NC15C2C)C43` (centres undefined), the AC40 was 20.1 µM.

As to `CC(C)CC#Cc1ccc2c(c1)O[C@H](CN(C)C(=O)Nc1ccccc1F)[C@@H](C)CN([C@@H](C)CO)S2(=O)=O`, the AC40 was 2.15 µM.

Regarding `COc1ccc(NS(=O)(=O)c2cc(NC(=O)c3ccc(Cl)cc3)ccc2N2CCOCC2)cc1`, the AC40 was under 0.26 µM.

Regarding `Cc1ccc(S(=O)(=O)Nc2cccc3c2O[C@H](CN(C)Cc2ccc(C(=O)Nc4ccccc4N)cc2)[C@H](C)CN([C@H](C)CO)C3=O)cc1`, the AC40 is 10.8 µM.

Take `Cc1ccc(CN2CCSc3ccc(C(=O)NCc4ccco4)cc32)cc1`: the AC40 was 11.3 µM.

`COc1ccc(NS(=O)(=O)c2cc(NC(=O)c3ccc(F)cc3)ccc2OC)cc1`: the AC40 was 3.14 µM.

As to `CCOC(=O)N1CCN(S(=O)(=O)c2cc(OCC)ccc2OCC)CC1`, the AC40 was 4.56 µM.

On to `O=S(=O)(NCC1CCCO1)c1ccc(Cl)c(C(F)(F)F)c1` (centres undefined), for which the AC40 was 7.84 µM.

In the case of `Cc1ccc(S(=O)(=O)N(C)C[C@H]2Oc3ccc(NC(=O)CCC(F)(F)F)cc3C(=O)N([C@@H](C)CO)C[C@H]2C)cc1`, the AC40 was 12.1 µM.

Regarding `COc1ccc(S(=O)(=O)Nc2cc3c(C(C)=O)c(C)oc3c3ccccc23)cc1`, the AC40 is 14.9 µM.

Regarding `C[C@@H]1CN([C@H](C)CO)C(=O)c2cccc(NS(=O)(=O)c3ccccc3)c2O[C@@H]1CN(C)Cc1ccc(C(=O)Nc2ccccc2N)cc1`, the AC40 was 17.2 µM.

For `COc1cccc(C(=O)N2C[C@H]3[C@@H](c4ccccc42)[C@@H](CO)N3C(=O)c2ccc(F)cc2)c1`, the AC40 is 2.16 µM.

For `COc1ccccc1C(=O)Nc1ccc2c(c1)C(=O)N(C)[C@H]1CC[C@@H](CC(=O)NCc3ccc(Cl)c(Cl)c3)O[C@@H]1CO2`, the AC40 is 2.85 µM.

In the case of `Cc1ccccc1NC(=O)Nc1ccc2c(c1)C(=O)N(C)[C@H]1CC[C@H](CC(=O)NCC3CC3)O[C@H]1CO2`, the AC40 was 1.87 µM.

Regarding `Cc1cc(NS(=O)(=O)c2ccccc2)cc(Cl)c1O`, the AC40 was 21.1 µM.

Turning to `Cc1ccc(NS(=O)(=O)c2cc(Br)cnc2N)cc1C`, the AC40 was 2.36 µM.

Consider `C/C(=N\NC(=O)c1ccccc1O)C1C(=O)c2ccccc2C1=O`, for which the AC40 was 18.1 µM.

`Cc1ccc(NC(=O)C(OC(=O)c2ccc(F)cc2)c2ccccc2)cc1Cl` (centres undefined): the AC40 was 2.85 µM.

With `C[C@H]1CN([C@@H](C)CO)C(=O)c2cccc(NS(=O)(=O)c3ccccc3)c2O[C@@H]1CN(C)Cc1ccc(C(=O)Nc2ccccc2N)cc1`, the AC40 was 22 µM.

For `C[C@@H]1CN([C@H](C)CO)C(=O)Cc2cc(NC(=O)Nc3ccc4c(c3)OCO4)ccc2O[C@@H]1CN(C)C(=O)Nc1cccc2ccccc12`, the AC40 was 0.579 µM.
